According to PMC5986872, “Schaftoside Interacts With NlCDK1 Protein: A Mechanism of Rice Resistance to Brown Planthopper, Nilaparvata lugens” (Frontiers in Plant Science, 2018):

Biological target: T1, NlCDK1 (Nilaparvata lugens, UniProt A0A1W5R2Z8)
T1 construct: CDS cloned BamHI/HindIII in pET32a
Experiment: intrinsic fluorescence quenching titration, double-log plot
Format: binding
Conditions: PBS; pH 7.4; 0.24 × 10^-6 mol/L protein; excitation 281 nm, emission 335 nm

T1 sequence (A0A1W5R2Z8 1-302): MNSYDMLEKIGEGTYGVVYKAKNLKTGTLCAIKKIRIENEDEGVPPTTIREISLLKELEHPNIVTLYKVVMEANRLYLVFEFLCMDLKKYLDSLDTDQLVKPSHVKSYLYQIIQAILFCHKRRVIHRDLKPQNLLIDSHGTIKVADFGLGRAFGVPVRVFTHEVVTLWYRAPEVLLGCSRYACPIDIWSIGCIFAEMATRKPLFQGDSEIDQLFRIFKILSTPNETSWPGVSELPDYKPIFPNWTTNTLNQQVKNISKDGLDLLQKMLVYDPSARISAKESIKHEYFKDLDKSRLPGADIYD

KA (apparent association constant): 6.436 × 10^3
Compound: O=c1cc(-c2ccc(O)cc2)oc2c([C@@H]3OC[C@H](O)[C@H](O)[C@H]3O)c(O)c([C@@H]3O[C@H](CO)[C@@H](O)[C@H](O)[C@H]3O)c(O)c12 [schaftoside, 6-C-beta-D-Glucosyl-8-C-alpha-L-arabinosylapigenin]
